# Data taken from patent US20090076141A1, “Use of Propofol Prodrugs for Treating Neuropathic Pain” (XenoPort, Inc., priority 2007, published 2009).
# Key:
# male rats = assay: Multiple dose study in rats (five days, once a day); assay type: in vivo; details: oral gavage once a day for five days, 49 to 97 mg-eq/kg
# Method: Multiple dose studies in rats were performed by orally administering compound (2) formulated in water to groups of male rats at doses of 49 mg-eq/kg to 97 mg-eq/kg for a period of five days, by oral gavages administered once a day.
# male beagle dogs = assay: Acute toxicity study, single oral dose in dogs; assay type: in vivo
# Method: Acute toxicity studies were also performed by orally administering a single dose of compound (2) formulated in water to groups of male beagle dogs at doses from about 25 mg-eq/kg to about 150 mg-eq/kg.
# rats = assay: Acute toxicity study, single oral dose in rats; assay type: in vivo
# Method: Acute toxicity studies in rats were undertaken to assess the tolerance of a single oral dose of compound (2) formulated in water. […] Complete recovery from hypoactivity, sedation, and anesthesia occurred in all rats within about 8 hours after dose. Doses above about 1552 mg-eq/kg (about 800 mg-eq/kg of propofol) were not tested.
# [1] = cited from earlier work
# [2] = orally administered as homogeneous liquid suspension, relative to equivalent intravenous dose of propofol; cited from earlier work
# [3] = oral dosing, rats; cited from earlier work
# [4] = rats, single oral dose about 49 to about 388 mg-eq/kg
# [5] = rats, single oral dose about 582 to about 970 mg-eq/kg
# [6] = rats, single oral dose about 1164 to about 1552 mg-eq/kg
smiles,measurement,setting,value
"CC(C)c1cccc(C(C)C)c1OC(=O)OC[C@H](N)C(=O)O (stereo in doubt) [Compound (2), 2-amino-3-(2,6-diisopropyl-phenoxycarbonyloxy)-propanoic acid]",adverse effects,male rats,No adverse effects were observed
same,sedation or anesthesia,male rats,No sedation or anesthesia was observed
same,tolerance of multiple doses,male rats,well tolerated
same,tolerance of a single oral dose,"male beagle dogs; formulated in water, about 25 to about 150 mg-eq/kg",well tolerated
same,sedation or anesthesia,male beagle dogs; single oral dose about 25 to about 150 mg-eq/kg,No sedation or anesthesia was observed
same,"complete recovery from hypoactivity, sedation, and anesthesia, time after dose","rats; all rats, single oral dose",≤ 8 h
same,tolerance of a single oral dose,"rats; rats, formulated in water, about 49 to about 1552 mg-eq/kg of administered compound",well tolerated
same,onset of transient hypoactivity after dose,rats; [4],≤ 30 min
same,"transient hypoactivity maintained, time post dose",rats; [4],up to 4 hours
same,onset of sedation after dose,rats; [5],≤ 1.5 h
same,"sedation lasted, time post dose",rats; [5],up to 4 hours
same,"anesthesia lasted, time post dose",rats; [6],up to 2 hours
same,onset of anesthesia after dose,rats; [6],≤ 1 h
CC(C)c1cccc(C(C)C)c1OCOP(=O)(O)O [O-phosphonooxymethyl propofol],time to maximum propofol concentration,[1]; oral administration,about 30 minutes
same,propofol oral bioavailability,"[1]; rats, relative to equivalent intravenous dose of propofol",22.2%
"CC(C)c1cccc(C(C)C)c1O [propofol, 2,6-diisopropylphenol]",oral bioavailability,[2],less than 5%
same,administered drug undergoing first pass metabolism,[3],approximately 90%
